Results reported in US8815900B2, “Compounds and compositions for reducing lipid levels” (CVI Pharmaceuticals Limited, priority 2007, dated 2014).
Several values for one entry are separate records, joined by “and”; a condition that tells them apart may be missing. Equal entries are not always repeated.

Experiment: Pharmacokinetics of CRDL in male hamsters following intravenous and oral administration
Assay type: in vivo
Conditions: for F: PO (20 mg/kg) vs IV (2 mg/kg)
Procedure: The plasma concentration of CRDL was determined in male hamsters following intravenous or oral administration. Hamsters were given CRDL at 2 mg/kg i.v. or 20 mg/kg p.o. Blood samples were collected at the indicated time points and the plasma was isolated.

[1] = IV (2 mg/kg), individual hamsters H1-H3, 2 mg/kg
[2] = PO (20 mg/kg), individual hamsters H4-H6, 20 mg/kg

In the case of `COc1cc2c(cc1OC)[C@H]1[C@@H](C)c3ccc(OC)c(OC)c3CN1CC2` [CRDL, 14R,13S-(+)-corydaline], the Concentration in plasma (IV 2 mg/kg, 0.083 hr, individual hamsters H1-H3, 2 mg/kg) is reported as 621.33 ng/mL and 520.38 ng/mL and 641.16 ng/mL, the Concentration in plasma (IV 2 mg/kg, 0.083 hr, mean) is reported as 594.29 ng/mL and the Concentration in plasma (IV 2 mg/kg, 0.25 hr, individual hamsters H1-H3, 2 mg/kg) is reported as 255.56 ng/mL and 350.21 ng/mL and 318.96 ng/mL. For the same compound, the Concentration in plasma (IV 2 mg/kg, 0.25 hr, mean) was 308.25 ng/mL, the Concentration in plasma (IV 2 mg/kg, 0.5 hr, individual hamsters H1-H3, 2 mg/kg) was 124.95 ng/mL and 165.87 ng/mL and 130.79 ng/mL and the Concentration in plasma (IV 2 mg/kg, 0.5 hr, mean) was 140.54 ng/mL. For the same compound, the Concentration in plasma (IV 2 mg/kg, 1 hr, individual hamsters H1-H3, 2 mg/kg) was 60.71 ng/mL and 69.78 ng/mL and 69.09 ng/mL, the Concentration in plasma (IV 2 mg/kg, 1 hr, mean) was 66.53 ng/mL and the Concentration in plasma (IV 2 mg/kg, 2 hr, individual hamsters H1-H3, 2 mg/kg) was 23.92 ng/mL and 19.37 ng/mL and 27.99 ng/mL. The Concentration in plasma (IV 2 mg/kg, 2 hr, mean) was 23.76 ng/mL, the Concentration in plasma (IV 2 mg/kg, 6 hr, individual hamsters H1-H3, 2 mg/kg) was 6.34 ng/mL and 4.76 ng/mL and 4.67 ng/mL and the Concentration in plasma (IV 2 mg/kg, 6 hr, mean) was 5.25 ng/mL. The Concentration in plasma (IV 2 mg/kg, 24 hr, individual hamsters H1-H3) was “BLQ”, the Tmax (IV (2 mg/kg), individual hamsters H1-H3) was 0.08 h and the “AUC(0-t)” value [1] was 364.46 ng·h/mL and 335.91 ng·h/mL and 336.84 ng·h/mL. The AUC(0-∞) [1] was 374 ng·h/mL and 351 ng·h/mL and 345 ng·h/mL, the CLz [1] was 89.2 mL/min/kg and 95 mL/min/kg and 96.7 mL/min/kg and the Cmax [1] was 641.16 ng/mL and 621.33 ng/mL and 520.38 ng/mL. The “MRT(0-∞)” value [1] was 0.98 h and 1.17 h and 0.94 h, the Vz [1] was 10.44 L/kg and 13.64 L/kg and 9.96 L/kg and the t1/2z [1] was 1.35 h and 1.66 h and 1.19 h. For the same compound, the “AUC(0-t)” value (IV (2 mg/kg), mean) was 345.74 ng·h/mL, the AUC(0-∞) (IV (2 mg/kg), mean) was 357 ng·h/mL and the Cmax (IV (2 mg/kg), mean) was 594.29 ng/mL. The “MRT(0-∞)” value (IV (2 mg/kg), mean) was 1.03 h, the Tmax (IV (2 mg/kg), mean) was 0.08 h and the Vz (IV (2 mg/kg), mean) was 11.35 L/kg. The “t1/2z (half life)” value (IV (2 mg/kg), mean) was 1.4 h, the “CLz (clearance)” value (IV (2 mg/kg), mean, 2 mg/kg) was 93.3 mL/min/kg and 93.7 mL/min/kg and the Concentration in plasma (PO 20 mg/kg, 0.25 hr, individual hamsters H4-H6, 20 mg/kg) was 1263.21 ng/mL and 895.64 ng/mL and 1308.39 ng/mL. For the same compound, the Concentration in plasma (PO 20 mg/kg, 0.25 hr, mean) was 1155.75 ng/mL, the Concentration in plasma (PO 20 mg/kg, 0.75 hr, individual hamsters H4-H6, 20 mg/kg) was 369.71 ng/mL and 164.19 ng/mL and 217.42 ng/mL and the Concentration in plasma (PO 20 mg/kg, 0.75 hr, mean) was 250.44 ng/mL. For the same compound, the Concentration in plasma (PO 20 mg/kg, 1 hr, individual hamsters H4-H6, 20 mg/kg) was 254.54 ng/mL and 146.76 ng/mL and 199.83 ng/mL, the Concentration in plasma (PO 20 mg/kg, 1 hr, mean) was 200.37 ng/mL and the Concentration in plasma (PO 20 mg/kg, 2 hr, individual hamsters H4-H6, 20 mg/kg) was 98.97 ng/mL and 62.78 ng/mL and 81.27 ng/mL. The Concentration in plasma (PO 20 mg/kg, 2 hr, mean) was 81.01 ng/mL, the Concentration in plasma (PO 20 mg/kg, 6 hr, individual hamsters H4-H6, 20 mg/kg) was 14.54 ng/mL and 9.66 ng/mL and 20.83 ng/mL and the Concentration in plasma (PO 20 mg/kg, 6 hr, mean) was 15.01 ng/mL. For the same compound, the Concentration in plasma (PO 20 mg/kg, 8 hr, individual hamsters H4-H6, 20 mg/kg) was 10.93 ng/mL and 6.80 ng/mL and 18.54 ng/mL, the Concentration in plasma (PO 20 mg/kg, 8 hr, mean) was 12.09 ng/mL and the Concentration in plasma (PO 20 mg/kg, 24 hr, individual hamsters H4-H6, 20 mg/kg) was 3.41 ng/mL and 2.64 ng/mL and 3.12 ng/mL. The Concentration in plasma (PO 20 mg/kg, 24 hr, mean) was 3.04 ng/mL, the F (individual hamsters H4-H6) was 34.56% and 22.28% and 33.19% and the F (mean) was 30.01%. The Tmax (PO (20 mg/kg), individual hamsters H4-H6) was 0.25 h, the “AUC(0-t)” value [2] was 1188.19 ng·h/mL and 756.88 ng·h/mL and 1154.55 ng·h/mL and the AUC(0-∞) [2] was 1230 ng·h/mL and 795 ng·h/mL and 1180 ng·h/mL. The Cmax [2] was 1263.21 ng/mL and 895.64 ng/mL and 1308.39 ng/mL, the “MRT(0-∞)” value [2] was 3.41 h and 3.96 h and 3.37 h and the t1/2z [2] was 8.94 h and 10.13 h and 6.43 h. The “AUC(0-t)” value (PO (20 mg/kg), mean) was 1033.21 ng·h/mL, the AUC(0-∞) (PO (20 mg/kg), mean) was 1070 ng·h/mL and the Cmax (PO (20 mg/kg), mean) was 1155.75 ng/mL. The “MRT(0-∞)” value (PO (20 mg/kg), mean) was 3.58 h, the Tmax (PO (20 mg/kg), mean) was roughly 0.25 h and the t1/2z (PO (20 mg/kg), mean) was 8.50 h.
